Data: US20240254119A1 (THIRD HARMONIC BIO, INC., priority 2022, published 2024)

What was measured:
Kinetic solubility assay = type: physicochemical; settings: kinetic solubility, 50 mM PB (pH 7.4), shaken 24 hours at RT
Procedure, shortened: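 Test compounds from 10 mM DMSO stock were diluted in 50 mM phosphate buffer, pH 7.4, and shaken for 24 h at RT. After PTFE filtration and centrifugation, filtrate concentration was quantified by UPLC-UV/HPLC-UV against a standard curve.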

CSF-1R = biological target: T1, CSF-1R (Homo sapiens, UniProt P07333); test: Caliper biochemical assay, CSF-1R; settings: Table 6
T1 construct: purchased Invitrogen PV3249 (lot 662393N)
Procedure, shortened: (§1)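 Kinase, FAM-labelled peptide substrate, ATP and Mn^2+ incubated with compound for 3 h at 25° C, then quenched with EDTA buffer. Substrate and phosphorylated product separated by microfluidic electrophoresis and quantified by fluorescence intensity; no-enzyme wells define 100% inhibition.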

[1] = biological target: T2, BCRP (BCRP-MDCKII monolayer) (Homo sapiens, UniProt Q9UNQ0); test: MDCKII-BCRP bidirectional transport assay; type: in vitro ADME; settings: for MDCK-BCRP: Papp A-B: apical to basolateral
T2 construct: host or cells: MDCKII (canine kidney) cells
T2 sequence (Q9UNQ0 1-655): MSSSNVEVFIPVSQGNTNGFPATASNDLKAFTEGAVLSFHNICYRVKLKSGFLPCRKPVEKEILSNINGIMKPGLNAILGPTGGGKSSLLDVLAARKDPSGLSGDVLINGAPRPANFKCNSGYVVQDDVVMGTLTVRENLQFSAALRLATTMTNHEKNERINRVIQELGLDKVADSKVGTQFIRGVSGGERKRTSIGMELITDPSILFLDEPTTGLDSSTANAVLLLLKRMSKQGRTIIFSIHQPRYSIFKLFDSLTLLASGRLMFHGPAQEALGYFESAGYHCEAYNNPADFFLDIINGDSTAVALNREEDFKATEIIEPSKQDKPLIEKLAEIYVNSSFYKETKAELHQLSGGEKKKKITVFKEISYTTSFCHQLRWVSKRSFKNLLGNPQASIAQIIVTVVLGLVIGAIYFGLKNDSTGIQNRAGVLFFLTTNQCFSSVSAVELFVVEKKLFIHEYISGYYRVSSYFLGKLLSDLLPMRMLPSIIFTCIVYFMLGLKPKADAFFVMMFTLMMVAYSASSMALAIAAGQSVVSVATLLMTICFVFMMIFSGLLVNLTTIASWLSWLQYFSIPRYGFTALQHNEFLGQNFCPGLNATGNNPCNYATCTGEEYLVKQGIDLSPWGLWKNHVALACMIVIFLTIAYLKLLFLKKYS
Procedure, shortened: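 Bidirectional A→B and B→A transport across PreadyPort BCRP-MDCKII monolayers (days 12–15) was run in duplicate for 120 min at 37° C, 5% CO2 after a 15 min preincubation. Compound levels were measured by LC-MS/MS. Papp and recovery were calculated, with efflux ratio indicating transporter engagement.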

wtKIT = biological target: T3, wtKIT (Homo sapiens, UniProt P10721); test: Caliper biochemical assay, wtKIT; settings: Table 6, read-out: KIT Biochemical IC50 avg
T3 construct: 1888289AM in the reaction mixtures
Procedure, shortened: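 Enzyme (5.0 nM wtKIT), 1 μM FAM-labelled peptide, 400 μM ATP and 10 mM MnCl2 in HEPES pH 7.5 with 1% DMSO, incubated 3 h at 25° C. EDTA quench; substrate and phosphoproduct separated by microfluidic electrophoresis and quantified by fluorescence.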

PDGFRα = biological target: T4, PDGFRα (Homo sapiens, UniProt P16234); test: Caliper biochemical assay, PDGFRα; settings: Table 6
T4 construct: purchased Millipore 14-467 (lot 26321_ACTI)
Procedure, shortened: as §1

T3 sequence (P10721 26-976): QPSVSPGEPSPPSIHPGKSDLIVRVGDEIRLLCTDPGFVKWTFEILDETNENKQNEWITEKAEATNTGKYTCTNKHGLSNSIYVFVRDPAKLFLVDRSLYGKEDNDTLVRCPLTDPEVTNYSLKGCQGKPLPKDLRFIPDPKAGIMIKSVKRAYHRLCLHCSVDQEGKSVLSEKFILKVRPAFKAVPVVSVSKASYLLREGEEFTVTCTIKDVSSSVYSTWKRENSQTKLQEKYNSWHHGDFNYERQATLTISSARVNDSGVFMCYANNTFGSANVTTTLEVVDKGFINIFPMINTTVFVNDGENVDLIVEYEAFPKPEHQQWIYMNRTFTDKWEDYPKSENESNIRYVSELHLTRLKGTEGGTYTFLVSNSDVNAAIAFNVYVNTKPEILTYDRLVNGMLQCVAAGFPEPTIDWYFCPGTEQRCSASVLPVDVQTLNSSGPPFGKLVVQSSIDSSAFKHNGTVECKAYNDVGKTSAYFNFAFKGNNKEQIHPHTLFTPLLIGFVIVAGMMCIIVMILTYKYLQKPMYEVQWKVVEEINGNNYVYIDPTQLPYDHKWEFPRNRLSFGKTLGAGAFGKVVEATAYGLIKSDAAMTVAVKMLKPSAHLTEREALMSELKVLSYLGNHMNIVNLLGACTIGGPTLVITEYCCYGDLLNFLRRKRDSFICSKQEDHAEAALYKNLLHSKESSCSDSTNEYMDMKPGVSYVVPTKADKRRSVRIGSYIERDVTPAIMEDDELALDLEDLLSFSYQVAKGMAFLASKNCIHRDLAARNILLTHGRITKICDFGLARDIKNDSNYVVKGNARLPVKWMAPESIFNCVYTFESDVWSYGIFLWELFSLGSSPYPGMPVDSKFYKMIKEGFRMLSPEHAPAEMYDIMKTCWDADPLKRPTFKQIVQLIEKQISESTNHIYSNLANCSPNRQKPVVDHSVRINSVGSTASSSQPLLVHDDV
T4 sequence (P16234 24-1089): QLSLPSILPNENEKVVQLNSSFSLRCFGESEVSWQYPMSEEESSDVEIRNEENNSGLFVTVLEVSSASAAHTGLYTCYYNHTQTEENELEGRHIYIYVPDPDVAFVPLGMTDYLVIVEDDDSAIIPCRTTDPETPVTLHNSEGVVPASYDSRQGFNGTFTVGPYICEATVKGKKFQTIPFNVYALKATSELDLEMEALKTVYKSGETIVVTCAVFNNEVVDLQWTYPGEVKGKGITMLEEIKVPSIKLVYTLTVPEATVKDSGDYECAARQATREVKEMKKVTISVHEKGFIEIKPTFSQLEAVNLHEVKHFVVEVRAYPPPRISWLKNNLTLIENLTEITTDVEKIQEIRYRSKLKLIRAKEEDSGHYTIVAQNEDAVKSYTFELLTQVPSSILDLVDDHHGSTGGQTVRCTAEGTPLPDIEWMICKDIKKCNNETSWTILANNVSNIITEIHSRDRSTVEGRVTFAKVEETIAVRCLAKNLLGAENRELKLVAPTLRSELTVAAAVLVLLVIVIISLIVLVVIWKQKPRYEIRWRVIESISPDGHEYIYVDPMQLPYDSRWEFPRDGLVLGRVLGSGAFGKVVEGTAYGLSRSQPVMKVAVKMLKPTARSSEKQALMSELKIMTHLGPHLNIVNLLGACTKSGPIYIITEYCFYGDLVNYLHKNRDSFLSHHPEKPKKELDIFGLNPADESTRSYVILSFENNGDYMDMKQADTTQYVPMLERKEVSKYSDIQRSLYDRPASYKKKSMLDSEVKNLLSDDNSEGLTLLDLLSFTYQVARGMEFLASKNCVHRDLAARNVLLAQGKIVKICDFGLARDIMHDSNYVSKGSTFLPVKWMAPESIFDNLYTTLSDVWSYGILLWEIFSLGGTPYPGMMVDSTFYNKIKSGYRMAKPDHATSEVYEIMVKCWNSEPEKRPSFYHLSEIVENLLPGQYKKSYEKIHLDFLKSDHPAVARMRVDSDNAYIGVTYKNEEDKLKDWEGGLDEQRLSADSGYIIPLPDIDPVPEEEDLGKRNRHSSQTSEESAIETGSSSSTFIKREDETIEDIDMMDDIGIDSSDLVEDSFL
T1 sequence (P07333 20-972): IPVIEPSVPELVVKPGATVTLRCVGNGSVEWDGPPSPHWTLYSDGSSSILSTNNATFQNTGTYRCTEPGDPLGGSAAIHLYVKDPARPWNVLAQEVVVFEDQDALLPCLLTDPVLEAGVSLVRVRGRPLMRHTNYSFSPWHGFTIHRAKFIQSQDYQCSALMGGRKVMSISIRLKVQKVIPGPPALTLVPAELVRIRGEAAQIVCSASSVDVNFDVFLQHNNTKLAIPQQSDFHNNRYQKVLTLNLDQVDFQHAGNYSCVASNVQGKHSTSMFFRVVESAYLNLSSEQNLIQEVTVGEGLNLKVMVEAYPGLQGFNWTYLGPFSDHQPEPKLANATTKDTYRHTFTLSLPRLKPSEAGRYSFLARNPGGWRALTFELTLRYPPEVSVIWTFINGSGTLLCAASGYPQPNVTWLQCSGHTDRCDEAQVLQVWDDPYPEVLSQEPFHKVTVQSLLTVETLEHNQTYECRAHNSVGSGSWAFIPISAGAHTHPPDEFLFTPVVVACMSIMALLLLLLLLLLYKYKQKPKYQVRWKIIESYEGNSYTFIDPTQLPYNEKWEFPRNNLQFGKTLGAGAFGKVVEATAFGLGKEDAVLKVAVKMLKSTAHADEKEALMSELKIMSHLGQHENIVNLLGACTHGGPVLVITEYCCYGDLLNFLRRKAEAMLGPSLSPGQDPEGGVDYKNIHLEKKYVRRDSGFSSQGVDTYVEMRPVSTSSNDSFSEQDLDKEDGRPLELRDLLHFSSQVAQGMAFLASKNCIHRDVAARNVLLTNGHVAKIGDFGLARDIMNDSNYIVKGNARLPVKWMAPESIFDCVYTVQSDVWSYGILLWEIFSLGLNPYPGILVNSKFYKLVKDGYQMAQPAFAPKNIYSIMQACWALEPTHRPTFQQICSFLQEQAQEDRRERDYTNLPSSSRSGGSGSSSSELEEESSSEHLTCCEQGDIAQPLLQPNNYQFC

Compound | Solubility (μM) (Kinetic solubility assay) | IC50 (CSF-1R) | MDCK-BCRP: Efflux Ratio [1] | MDCK-BCRP: Papp A-B [1] | IC50 (wtKIT) | IC50 (PDGFRα)
COC(=O)N1CC(c2nc(-c3ccc(C)c(NC(=O)c4cnn5cc(C#N)ccc45)c3)no2)C1 [Compound I-204] | *** (a solubility greater than 2 μM and less than or equal to 10 μM) | 50 to 500 nM | 6.11 | 3.27 10^−6 cm/s | ≤ 50 nM | 5000 to 30000 nM
Cc1ccc(-c2noc(C3CC(OCCF)C3)n2)cc1NC(=O)c1cnc2ccccn12 (stereo not drawn) [Compound I-369] | ** (a solubility greater than 10 μM and less than or equal to 50 μM) | 50 to 500 nM | 1.62 | 8.93 10^−6 cm/s | ≤ 50 nM | 500 to 5000 nM
Cc1cc(C)cc(Nc2ccc3ncc(C(=O)Nc4cc(-c5noc([C@H]6C[C@@H]6F)n5)ccc4C)n3c2)c1 [Compound I-299] | **** (a solubility less than or equal to 2 μM) | ≤ 50 nM | 13.7 | 0.01 10^−6 cm/s | ≤ 50 nM | 50 to 500 nM
Cc1ccc(-c2noc([C@@H](C)O)n2)cc1NC(=O)c1cnc2ccccn12 [Compound I-270] | * (a solubility greater than 50 μM) | ≤ 50 nM | 20.8 | 1.3 10^−6 cm/s | 50 to 500 nM | 5000 to 30000 nM
COC(=O)N1CC(c2nc(-c3ccc(C)c(NC(=O)c4cnc5cc(OC[C@H](C)O)ccn45)c3)no2)C1 [Compound I-262] | ** (a solubility greater than 10 μM and less than or equal to 50 μM) | ≤ 50 nM | 46.5 | 0.54 10^−6 cm/s | ≤ 50 nM | 50 to 500 nM
COCCS(=O)(=O)N1CC(c2nc(-c3ccc(C)c(NC(=O)c4cnc5ccccn45)c3)no2)C1 [Compound I-235] | *** (a solubility greater than 2 μM and less than or equal to 10 μM) | 50 to 500 nM | 6.86 | 3.11 10^−6 cm/s | ≤ 50 nM | 5000 to 30000 nM
Cc1ccc(-c2noc(CC(O)C(F)F)n2)cc1NC(=O)c1cnc2ccccn12 (stereo not drawn) [Compound I-114] | **** (a solubility less than or equal to 2 μM) | 50 to 500 nM | 8.07 | 3.03 10^−6 cm/s | ≤ 50 nM | 500 to 5000 nM
Cc1ccc(-c2noc(CC3CC3(F)F)n2)cc1NC(=O)c1cnc2ccccn12 (stereo not drawn) [Compound I-125] | **** (a solubility less than or equal to 2 μM) | ≤ 50 nM | 1.6 | 9.07 10^−6 cm/s | ≤ 50 nM | 50 to 500 nM
Cc1ccc(-c2noc(CC(C)O)n2)cc1NC(=O)c1cnc2ccccn12 (racemic) [Compound I-363] | ** (a solubility greater than 10 μM and less than or equal to 50 μM) | 50 to 500 nM | 5.58 | 3.24 10^−6 cm/s | ≤ 50 nM | 500 to 5000 nM
Cc1ccc(-c2noc(C3CCC3F)n2)cc1NC(=O)c1cnc2ccccn12 (racemic) [Compound I-377] | *** (a solubility greater than 2 μM and less than or equal to 10 μM) | ≤ 50 nM | 0.98 | 7.81 10^−6 cm/s | ≤ 50 nM | 500 to 5000 nM
Cc1nc(-c2ccc(C)c(NC(=O)c3cnc4ccccn34)c2)no1 [Compound I-360] | ** (a solubility greater than 10 μM and less than or equal to 50 μM) | 500 to 5000 nM | 1.52 | 9.54 10^−6 cm/s | ≤ 50 nM | 500 to 5000 nM
CCCS(=O)(=O)N1CC(c2nc(-c3ccc(Cl)c(NC(=O)c4cnc5ccccn45)c3)no2)C1 [Compound I-220] | **** (a solubility less than or equal to 2 μM) | 50 to 500 nM | 1.17 | 26.4 10^−6 cm/s | ≤ 50 nM | 5000 to 30000 nM
Cc1nc(-c2ccc(C)c(NC(=O)c3cnc4ccc(N(C)C)cn34)c2)no1 [Compound I-205] | **** (a solubility less than or equal to 2 μM) | ≤ 50 nM | 1.66 | 23.5 10^−6 cm/s | ≤ 50 nM | 50 to 500 nM
Cc1ccc(-c2noc(C3CCN3)n2)cc1NC(=O)c1cnc2ccccn12 (racemic) [Compound I-394] | * (a solubility greater than 50 μM) | 50 to 500 nM | 23.2 | 1.42 10^−6 cm/s | ≤ 50 nM | 5000 to 30000 nM
COC(=O)N1CC(c2nc(-c3ccc(C)c(NC(=O)c4cnc5cc(OC[C@@H](C)O)ccn45)c3)no2)C1 [Compound I-263] | * (a solubility greater than 50 μM) | ≤ 50 nM | 45.4 | 0.56 10^−6 cm/s | ≤ 50 nM | 50 to 500 nM
Cc1ccc(-c2noc(C(C)O)n2)cc1NC(=O)c1cnc2ccccn12 (racemic) [Compound I-364] | * (a solubility greater than 50 μM) | ≤ 50 nM | 9.18 | 2.19 10^−6 cm/s | 50 to 500 nM | 5000 to 30000 nM
Cc1nc(-c2ccc(Cl)c(NC(=O)c3cnc4ccccn34)c2)no1 [Compound I-172] | **** (a solubility less than or equal to 2 μM) | 50 to 500 nM | 0.81 | 6.02 10^−6 cm/s | ≤ 50 nM | 500 to 5000 nM
COC(=O)N1CC(c2nc(-c3ccc(C)c(NC(=O)c4cnc5cc(O[C@@H](C)CO)ccn45)c3)no2)C1 (single isomer, unassigned) [Compound I-217] | ** (a solubility greater than 10 μM and less than or equal to 50 μM) | ≤ 50 nM | 28.1 | 0.86 10^−6 cm/s | ≤ 50 nM | 50 to 500 nM
Cc1ccc(-c2noc(CO)n2)cc1NC(=O)c1cnc2ccccn12 [Compound I-337] | * (a solubility greater than 50 μM) | 50 to 500 nM | 4.71 | 3.73 10^−6 cm/s | ≤ 50 nM | 50 to 500 nM
Cc1ccc(-c2noc(C3(C)CC(F)(F)CN3)n2)cc1NC(=O)c1cnc2ccccn12 (racemic) [Compound I-328] | *** (a solubility greater than 2 μM and less than or equal to 10 μM) | 50 to 500 nM | 4.55 | 6.06 10^−6 cm/s | ≤ 50 nM | 500 to 5000 nM
Cc1ccc(-c2noc(CCO)n2)cc1NC(=O)c1cnc2ccccn12 [Compound I-306] | * (a solubility greater than 50 μM) | 50 to 500 nM | 23.2 | 1.46 10^−6 cm/s | ≤ 50 nM | 5000 to 30000 nM
Cc1ccc(-c2noc(CC(=O)O)n2)cc1NC(=O)c1cnc2ccccn12 [Compound I-335] | * (a solubility greater than 50 μM) | 500 to 5000 nM | 0.37 | 1.99 10^−6 cm/s | 50 to 500 nM | 500 to 5000 nM
